# Test results reported in patent publication US20050095241A1, “Estrogen receptor modulators and uses thereof” (priority 2003, published 2005).
# Columns and labels:
# Ishikawa cells = test: Tamoxifen-mediated agonist signaling, reporter gene and cell growth assays, Ishikawa cells; assay type: cell-based; conditions: Ishikawa cells co-transfected with ERE reporter gene; two days
# Description: (§1) Interference with PELP1 function blocks tamoxifen-mediated agonist activity in endometrial cell lines. Disruption of PELP1 functions was examined to assess interference with tamoxifen-mediated agonist signaling using reporter gene assays and cell growth assays performed in an endometrial cell line (Ishikawa) and a breast cancer cell line (MCF-7). Cancer cells were co-transfected with ERE reporter gene along with either (a) PELP1 cDNA, (b) PELP1 H1 […]), (c) PELP1 mutant cDNA lacking the nuclear localization signal (PELP-NLS mutant), or (d) PELP1-specific siRNA. Cells were stimulated with estrogen for two days and reporter gene activity and cell number were measured.
# ER = ER transactivation assay (ERE-luciferase) in ER-positive Ishikawa cells; assay type: cell-based; conditions: coexpression of PELP1, compared to 6 fold in vector-transfected cells, FIG. 7B
# Experimental: (§2) PELP1 is widely expressed in endometrial cancer cells including the widely used endometrial cell lines (Ishikawa and RL 95-2). Control MCF-7 (ERα-positive) and MDA-MB-231 (ERβ-positive) breast cancer cells were also analyzed. (FIG. 7A). […] PELP1 modulation of the transactivation functions of both ER subtypes was performed using ERα or ERβ specific ligands. […] PELP1 also promotes ERβ transcriptional activity in Ishikawa cells when cotransfected with PELP1 (FIG. 7F). Further, endogenous PELP1 effectively interacts with ERβ in Ishikawa cells in a ligand-dependent manner (FIG. 7G).
# MCF-7 cells = test: Tamoxifen-mediated agonist signaling, reporter gene and cell growth assays, MCF-7 cells; assay type: cell-based; conditions: MCF-7 cells co-transfected with ERE reporter gene; two days
# Description: as §1
# ERE luciferase reporter = ERE luciferase reporter assay in MCF-7, Ishikawa, HeLa and SaoS2 cells; conditions: E2 10^−9M, 24 hours
# ERα [1] = target: T1, ERα (Homo sapiens, UniProt P03372); test: E2-mediated transactivation with PELP1 mutant lacking C-terminal histone-binding region; conditions: FIG. 9
# T1 sequence (P03372 1-595): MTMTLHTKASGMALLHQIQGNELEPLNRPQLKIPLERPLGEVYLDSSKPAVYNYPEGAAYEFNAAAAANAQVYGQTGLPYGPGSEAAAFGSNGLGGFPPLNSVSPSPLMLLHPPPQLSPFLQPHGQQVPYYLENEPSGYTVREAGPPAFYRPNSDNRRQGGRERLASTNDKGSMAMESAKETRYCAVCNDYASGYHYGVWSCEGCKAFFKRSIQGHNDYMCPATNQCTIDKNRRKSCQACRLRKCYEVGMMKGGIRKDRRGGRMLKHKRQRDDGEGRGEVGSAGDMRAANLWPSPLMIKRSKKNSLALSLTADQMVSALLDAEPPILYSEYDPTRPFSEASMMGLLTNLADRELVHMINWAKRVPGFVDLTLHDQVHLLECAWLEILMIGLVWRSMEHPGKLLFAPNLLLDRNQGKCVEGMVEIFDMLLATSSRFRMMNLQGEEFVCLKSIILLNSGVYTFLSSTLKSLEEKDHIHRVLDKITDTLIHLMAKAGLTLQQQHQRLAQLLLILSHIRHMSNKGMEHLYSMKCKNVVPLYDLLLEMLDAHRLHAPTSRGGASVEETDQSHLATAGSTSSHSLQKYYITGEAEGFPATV
# ERE reporter gene = ERE reporter gene assay in Ishikawa cells with or without PELP1 H1 mutant; assay type: cell-based, human; conditions: Ishikawa cells transfected with ERE reporter gene, treated or not treated with estrogen; FIG. 1E
# Description: Ishikawa (human endometrial adenocarcinoma) cells were transfected with ERE reporter gene with or without the PELP1 H1 mutant. […]
# ERα [2] = target: T1, ERα; test: 3XEREluc reporter assay with ERα specific ligand in Ishikawa cells; assay type: cell-based; conditions: PELP1-transfected Ishikawa cells treated with PPT; FIG. 7C
# Experimental: as §2
Compound,tamoxifen-mediated agonist activity (Ishikawa cells),increase of ERE-luciferase (luc) activity in ligand-stimulated cells (ER),tamoxifen-mediated agonist activity (MCF-7 cells),ERE luciferase reporter activity (ERE luciferase reporter; FIG. 2),"ERE luciferase reporter activity (ERE luciferase reporter; FIG. 2, listed as Histone H1 mutant)",ERα mediated transcription (ERα [1]),estrogen-mediated transcriptional activation (ERE reporter gene activity) (ERE reporter gene),increase of 3XEREluc reporter activity (ERα [2])
"wild-type PELP1: Proline, glutamic acid and leucine rich protein 1, full length, expressed from PELP1 cDNA; SEQ ID NO:1",augmented tamoxifen-mediated agonist activity,9 fold,not in MCF-7 cells,–,–,–,–,–
"PELP1 H1 mutant: C-terminal deleted PELP1 mutant (aa 1-877), stop codon after amino acid 877, lacks Histone H1 binding domain; SEQ ID NO:14",disrupted tamoxifen-mediated agonist activity,–,–,effectively suppressed the estrogen mediated ER coactivation functions,substantially reduced the magnitude of the transcriptional activation by estrogen,blocks ERα mediated transcription,blocking of estrogen-mediated transcriptional activation,–
CCCc1c(-c2ccc(O)cc2)nn(-c2ccc(O)cc2)c1-c1ccc(O)cc1 [PPT],–,–,–,–,–,–,–,9 times more than the vector-transfected control
